Format: physicochemical
Conditions: for area of the main peak has decreased: after 72h at pH = 2.3, sodiumphosphate buffer, HPLC-ELSD
Procedure: Example 11. The acid stability of four dihydroartemisinin (DHA) derivatives was investigated. […] Phenomex Luna; 50 x 4.6 mm, 3 μ C18. ACN/H2O; 60/40 at 1.0 ml/min DHA dissolved in mob. phase to give 0,21 mg/ml Compound of formula 1, n=4 (3PEG-DHA) dissolved in H2O to give 0.48 mg/ml in 0.1 M buffer. […] Artemisone dissolved in mob. phase to give 0.20 mg/ml in 0.1 M buffer, Artesunate dissolved in mob. phase to give 0.24 mg/ml in 0.1 M buffer. 20 μ[…]

degradation | area of the main peak has decreased | degraded (72 h, 0.24 mg/ml, pH 2.3) [%] | Structure (SMILES)
No sign of degradation | about 71% | – | C[C@H]1[C@H](N2CCS(=O)(=O)CC2)O[C@@H]2O[C@@]3(C)CC[C@H]4[C@H](C)CC[C@@H]1[C@@]24OO3 [artemison, artemisone]
No sign of degradation | about 40% | 41 | C[C@H]1[C@H](OC(=O)CCC(=O)O)O[C@@H]2O[C@@]3(C)CC[C@H]4[C@H](C)CC[C@@H]1[C@@]24OO3 [artesunate]
